Assay results taken from US8952024B2, “Herbicidal pyrimidone derivatives” (E I du Pont de Nemours and Company, priority 2009, dated 2015).

How the values were obtained:
Test in all cases: Test D pre-/postemergence plant response
Type in all cases: in vivo
Details in all cases: Postemergence
[1] = test system: Russian thistle (Salsola kali)
Method in brief: (§1)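 Seeds in loam–sand blend treated preemergence, and plants at 1- to 4-leaf stage (2–18 cm) treated postemergence, with compounds in non-phytotoxic solvent with surfactant. Greenhouse for 14–21 days, then visual rating against controls, 0 (no effect) to 100 (complete control).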

[2] = test system: barnyardgrass (Echinochloa crus-galli)
Method in brief: as §1

[3] = test system: bluegrass (annual bluegrass, Poa annua)
Method in brief: as §1

[4] = test system: dallisgrass (Paspalum dilatatum)
Method in brief: as §1

[5] = test system: goosegrass (Eleusine indica)
Method in brief: as §1

[6] = test system: green foxtail (Setaria viridis)
Method in brief: as §1

[7] = test system: guineagrass (Panicum maximum)
Method in brief: as §1

[8] = test system: itchgrass (Rottboellia cochinchinensis)
Method in brief: as §1

[9] = test system: johnsongrass (Sorghum halepense)
Method in brief: as §1

[10] = test system: mallow (common mallow, Malva sylvestris)
Method in brief: as §1

[11] = test system: nutsedge (purple nutsedge, Cyperus rotundus)
Method in brief: as §1

[12] = test system: purslane (common purslane, Portulaca oleracea)
Method in brief: as §1

[13] = test system: quackgrass (Elytrigia repens)
Method in brief: as §1

[14] = test system: ragweed (common ragweed, Ambrosia elatior)
Method in brief: as §1

[15] = test system: signalgrass (broadleaf signalgrass, Brachiaria platyphylla)
Method in brief: as §1

[16] = test system: sowthistle (common sowthistle, Sonchus oleraceous)
Method in brief: as §1

[17] = 250 g ai/ha, scale 0 to 100 (0 no effect, 100 complete control)
[18] = 62 g ai/ha, scale 0 to 100 (0 no effect, 100 complete control)
[19] = 125 g ai/ha, scale 0 to 100 (0 no effect, 100 complete control)

In the case of `CCCCn1c(-c2ccccc2)ncc(C(=O)C2=C(O)C3CCC(C3)C2=O)c1=O` (stereo not drawn) [Compound 240], the “Plant response rating, Russian Thistle” value ([1]; 31 g ai/ha, scale 0 to 100) is reported as 35, the “Plant response rating, Russian Thistle” value [1, 17] is reported as 35 and the “Plant response rating, Russian Thistle” value [1, 18] is reported as 35. The “Plant response rating, Barnyardgrass” value ([2]; 31 g ai/ha, scale 0 to 100) was 80, the “Plant response rating, Barnyardgrass” value [2, 19] was 95 and the “Plant response rating, Barnyardgrass” value [2, 17] was 95. For the same compound, the “Plant response rating, Barnyardgrass” value [2, 18] was 95, the “Plant response rating, Bluegrass” value ([3]; 31 g ai/ha, scale 0 to 100) was 5 and the “Plant response rating, Bluegrass” value [3, 19] was 35. For the same compound, the “Plant response rating, Bluegrass” value [3, 17] was 35, the “Plant response rating, Bluegrass” value [3, 18] was 35 and the “Plant response rating, Dallisgrass” value ([4]; 31 g ai/ha, scale 0 to 100) was 5. The “Plant response rating, Dallisgrass” value [4, 19] was 75, the “Plant response rating, Dallisgrass” value [4, 17] was 75 and the “Plant response rating, Dallisgrass” value [4, 18] was 70. For the same compound, the “Plant response rating, Goosegrass” value ([5]; 31 g ai/ha, scale 0 to 100) was 70, the “Plant response rating, Goosegrass” value [5, 19] was 80 and the “Plant response rating, Goosegrass” value [5, 17] was 80. For the same compound, the “Plant response rating, Goosegrass” value [5, 18] was 70, the “Plant response rating, Foxtail, Green” value ([6]; 31 g ai/ha, scale 0 to 100) was 95 and the “Plant response rating, Foxtail, Green” value [6, 19] was 98. The “Plant response rating, Foxtail, Green” value [6, 17] was 98, the “Plant response rating, Foxtail, Green” value [6, 18] was 98 and the “Plant response rating, Guineagrass” value ([7]; 31 g ai/ha, scale 0 to 100) was 40. For the same compound, the “Plant response rating, Guineagrass” value [7, 19] was 80, the “Plant response rating, Guineagrass” value [7, 17] was 80 and the “Plant response rating, Guineagrass” value [7, 18] was 65. The “Plant response rating, Itchgrass” value ([8]; 31 g ai/ha, scale 0 to 100) was 75, the “Plant response rating, Itchgrass” value [8, 19] was 80 and the “Plant response rating, Itchgrass” value [8, 17] was 80. For the same compound, the “Plant response rating, Itchgrass” value [8, 18] was 75, the “Plant response rating, Johnsongrass” value ([9]; 31 g ai/ha, scale 0 to 100) was 70 and the “Plant response rating, Johnsongrass” value [9, 19] was 95. The “Plant response rating, Johnsongrass” value [9, 17] was 95, the “Plant response rating, Johnsongrass” value [9, 18] was 90 and the “Plant response rating, Mallow” value ([10]; 31 g ai/ha, scale 0 to 100) was 10. For the same compound, the “Plant response rating, Mallow” value [10, 19] was 60, the “Plant response rating, Mallow” value [10, 17] was 60 and the “Plant response rating, Mallow” value [10, 18] was 40. The “Plant response rating, Nutsedge, Purple” value ([11]; 31 g ai/ha, scale 0 to 100) was 0, the “Plant response rating, Nutsedge, Purple” value [11, 19] was 5 and the “Plant response rating, Nutsedge, Purple” value [11, 17] was 20. The “Plant response rating, Nutsedge, Purple” value [11, 18] was 5, the “Plant response rating, Purslane” value ([12]; 31 g ai/ha, scale 0 to 100) was 0 and the “Plant response rating, Purslane” value [12, 17] was 50. For the same compound, the “Plant response rating, Purslane” value [12, 18] was 35, the “Plant response rating, Quackgrass” value ([13]; 31 g ai/ha, scale 0 to 100) was 25 and the “Plant response rating, Quackgrass” value [13, 19] was 35. For the same compound, the “Plant response rating, Quackgrass” value [13, 17] was 50, the “Plant response rating, Quackgrass” value [13, 18] was 30 and the “Plant response rating, Ragweed” value ([14]; 31 g ai/ha, scale 0 to 100) was 70. The “Plant response rating, Ragweed” value [14, 19] was 80, the “Plant response rating, Ragweed” value [14, 17] was 90 and the “Plant response rating, Ragweed” value [14, 18] was 75. The “Plant response rating, Signalgrass” value ([15]; 31 g ai/ha, scale 0 to 100) was 20, the “Plant response rating, Signalgrass” value [15, 19] was 75 and the “Plant response rating, Signalgrass” value [15, 17] was 85. For the same compound, the “Plant response rating, Signalgrass” value [15, 18] was 75, the “Plant response rating, Sowthistle” value ([16]; 31 g ai/ha, scale 0 to 100) was 98 and the “Plant response rating, Sowthistle” value [16, 19] was 98. The “Plant response rating, Sowthistle” value [16, 17] was 98 and the “Plant response rating, Sowthistle” value [16, 18] was 98.
With `COCCCn1c(-c2cc(F)cc(F)c2)ncc(C(=O)C2=C(O)C3CCC(C3)C2=O)c1=O` (stereo not drawn) [Compound 244] the “Plant response rating, Russian Thistle” value ([1]; 31 g ai/ha, scale 0 to 100) was 20, the “Plant response rating, Russian Thistle” value [1, 19] was 60 and the “Plant response rating, Russian Thistle” value [1, 17] was 65. The “Plant response rating, Russian Thistle” value [1, 18] was 40, the “Plant response rating, Barnyardgrass” value ([2]; 31 g ai/ha, scale 0 to 100) was 80 and the “Plant response rating, Barnyardgrass” value [2, 19] was 85. For the same compound, the “Plant response rating, Barnyardgrass” value [2, 17] was 90, the “Plant response rating, Barnyardgrass” value [2, 18] was 80 and the “Plant response rating, Bluegrass” value ([3]; 31 g ai/ha, scale 0 to 100) was 0. For the same compound, the “Plant response rating, Bluegrass” value [3, 19] was 10, the “Plant response rating, Bluegrass” value [3, 17] was 20 and the “Plant response rating, Bluegrass” value [3, 18] was 10. For the same compound, the “Plant response rating, Dallisgrass” value ([4]; 31 g ai/ha, scale 0 to 100) was 40, the “Plant response rating, Dallisgrass” value [4, 19] was 75 and the “Plant response rating, Dallisgrass” value [4, 17] was 80. The “Plant response rating, Dallisgrass” value [4, 18] was 75, the “Plant response rating, Goosegrass” value ([5]; 31 g ai/ha, scale 0 to 100) was 50 and the “Plant response rating, Goosegrass” value [5, 19] was 70. The “Plant response rating, Goosegrass” value [5, 17] was 70, the “Plant response rating, Goosegrass” value [5, 18] was 60 and the “Plant response rating, Foxtail, Green” value ([6]; 31 g ai/ha, scale 0 to 100) was 75. The “Plant response rating, Foxtail, Green” value [6, 19] was 95, the “Plant response rating, Foxtail, Green” value [6, 17] was 100 and the “Plant response rating, Foxtail, Green” value [6, 18] was 90. The “Plant response rating, Guineagrass” value ([7]; 31 g ai/ha, scale 0 to 100) was 70, the “Plant response rating, Guineagrass” value [7, 19] was 75 and the “Plant response rating, Guineagrass” value [7, 17] was 75. For the same compound, the “Plant response rating, Guineagrass” value [7, 18] was 75, the “Plant response rating, Itchgrass” value ([8]; 31 g ai/ha, scale 0 to 100) was 60 and the “Plant response rating, Itchgrass” value [8, 19] was 75. For the same compound, the “Plant response rating, Itchgrass” value [8, 17] was 75, the “Plant response rating, Itchgrass” value [8, 18] was 70 and the “Plant response rating, Johnsongrass” value ([9]; 31 g ai/ha, scale 0 to 100) was 70. For the same compound, the “Plant response rating, Johnsongrass” value [9, 19] was 75, the “Plant response rating, Johnsongrass” value [9, 17] was 75 and the “Plant response rating, Johnsongrass” value [9, 18] was 70. The “Plant response rating, Mallow” value ([10]; 31 g ai/ha, scale 0 to 100) was 50, the “Plant response rating, Mallow” value [10, 19] was 60 and the “Plant response rating, Mallow” value [10, 17] was 70. The “Plant response rating, Mallow” value [10, 18] was 50, the “Plant response rating, Nutsedge, Purple” value ([11]; 31 g ai/ha, scale 0 to 100) was 0 and the “Plant response rating, Nutsedge, Purple” value [11, 19] was 10. The “Plant response rating, Nutsedge, Purple” value [11, 17] was 35, the “Plant response rating, Nutsedge, Purple” value [11, 18] was 0 and the “Plant response rating, Purslane” value ([12]; 31 g ai/ha, scale 0 to 100) was 25. The “Plant response rating, Purslane” value [12, 19] was 50, the “Plant response rating, Purslane” value [12, 17] was 50 and the “Plant response rating, Purslane” value [12, 18] was 50. The “Plant response rating, Quackgrass” value ([13]; 31 g ai/ha, scale 0 to 100) was 20, the “Plant response rating, Quackgrass” value [13, 19] was 50 and the “Plant response rating, Quackgrass” value [13, 17] was 65. The “Plant response rating, Quackgrass” value [13, 18] was 40, the “Plant response rating, Ragweed” value ([14]; 31 g ai/ha, scale 0 to 100) was 65 and the “Plant response rating, Ragweed” value [14, 19] was 80. The “Plant response rating, Ragweed” value [14, 17] was 85, the “Plant response rating, Ragweed” value [14, 18] was 70 and the “Plant response rating, Signalgrass” value ([15]; 31 g ai/ha, scale 0 to 100) was 20. For the same compound, the “Plant response rating, Signalgrass” value [15, 19] was 25, the “Plant response rating, Signalgrass” value [15, 17] was 35 and the “Plant response rating, Signalgrass” value [15, 18] was 20. For the same compound, the “Plant response rating, Sowthistle” value ([16]; 31 g ai/ha, scale 0 to 100) was 75, the “Plant response rating, Sowthistle” value [16, 19] was 100 and the “Plant response rating, Sowthistle” value [16, 17] was 100. For the same compound, the “Plant response rating, Sowthistle” value [16, 18] was 95.
